Results reported in patent publication US20220323442A1, “ENTERIC-COATED PREPARATION COMPRISING XANTHINE OXIDASE INHIBITOR” (Nippon Chemiphar Co., Ltd., priority 2019, published 2022).

Assay: Volume average particle size (D50) by laser diffraction
Type: physicochemical
Conditions: amorphous Compound 14 (spray dried), dispersed in 0.2% Aerosol OT aqueous solution, ultrasonic 30 seconds
Description: The volume average particle size (D50) can usually be measured by dispersing the measurement sample in a solvent such as water or ethanol and measuring the particle size distribution by a laser diffraction method. The measurement sample may be dispersed in a solvent by irradiation of ultrasonic waves or the like. The particle size distribution can be measured by a particle size distribution measuring device (for example, Shimadzu laser diffraction type particle size distribution measuring device SALD-2200). The volume average particle size (D50) can be determined from the obtained particle size distribution result. A commercially available software (for example, Shimadzu WingSALD-2200 version 1.02) can be used for data collection and analysis.
A volume average particle size (D50) of the obtained amorphous Compound 14 was measured with a Shimadzu laser diffraction type particle size distribution measuring device SALD-2200 using a dispersion obtained by adding about 2 mg of a sample to a 0.2% Aerosol OT aqueous solution and irradiating the solution with ultrasonic waves for 30 seconds for dispersion. Shimadzu WingSALD-2200 version 1.02 software was used for data collection and analysis. […] The volume average particle size (D50) of amorphous Compound 14 obtained from the particle size distribution was 2.949 μm.

volume average particle size (D50): 2.949 μm
Structure (SMILES): N#Cc1cc(-c2nc3c(O)ncnc3s2)ccc1Oc1ccccc1 [Compound 14, 2-(3-Cyano-4-phenoxyphenyl)-7-hydroxythiazolo(5,4-d]pyrimidine]
